SMILES strings stand for the structures. Some results are limits rather than exact numbers.

As a reminder, the IC50 is the midpoint of a concentration-inhibition curve. Read a high IC50 as lower potency.

Chain of TrkA (P04629 33-796): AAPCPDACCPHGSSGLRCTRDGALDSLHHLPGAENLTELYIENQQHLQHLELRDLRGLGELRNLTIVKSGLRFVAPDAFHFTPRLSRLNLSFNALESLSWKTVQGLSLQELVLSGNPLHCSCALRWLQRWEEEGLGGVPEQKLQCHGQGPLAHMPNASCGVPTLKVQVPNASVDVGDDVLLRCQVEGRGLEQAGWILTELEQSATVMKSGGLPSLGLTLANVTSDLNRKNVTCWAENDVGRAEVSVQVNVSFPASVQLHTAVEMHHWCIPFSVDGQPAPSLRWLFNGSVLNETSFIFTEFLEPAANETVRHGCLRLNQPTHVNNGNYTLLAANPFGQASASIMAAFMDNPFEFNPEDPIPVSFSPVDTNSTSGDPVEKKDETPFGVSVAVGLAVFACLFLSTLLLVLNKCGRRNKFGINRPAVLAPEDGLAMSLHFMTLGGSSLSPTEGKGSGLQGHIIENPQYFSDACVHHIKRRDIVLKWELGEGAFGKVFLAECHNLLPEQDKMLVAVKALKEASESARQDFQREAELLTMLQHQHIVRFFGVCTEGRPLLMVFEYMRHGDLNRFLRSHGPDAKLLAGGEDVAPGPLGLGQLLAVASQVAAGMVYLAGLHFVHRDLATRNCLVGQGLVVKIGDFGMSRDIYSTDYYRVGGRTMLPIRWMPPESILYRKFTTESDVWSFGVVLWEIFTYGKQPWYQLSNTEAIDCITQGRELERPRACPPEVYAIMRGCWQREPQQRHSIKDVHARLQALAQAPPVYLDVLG

This assay concerns the target TrkA (Homo sapiens (Human), UniProt P04629). In words: TrkA Omnia Assay. The class given is biochemical. The settings on record: averaged IC50; 20 nM enzyme, 500 μM ATP, 10 μM peptide substrate. In outline:
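Recombinant TrkA (20 nM) preincubated 10 min at ambient temperature with compound, then Omnia Tyr Peptide #4 (10 μM) and ATP (500 μM) added in 25 mM MOPS pH 7.5, 5 mM MgCl2, 0.005% Triton X-100. Fluorescence (ex 360/em 485 nm) followed continuously for 70 min; IC50 from initial rates by 4- or 5-parameter logistic fit.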
As for `COCCN1C[C@@H](NC(=O)Nc2c(Cl)c(C[C@@H](C)O)nn2-c2ccccc2)[C@H](c2ccc(F)c(F)c2)C1` [Example 413, 1-(4-chloro-3-((R)-2-hydroxypropyl)-1-phenyl-1H-pyrazo1-5-yl)-3-((3S,4R)-4-(3,4-difluorophenyl)-1-(2-methoxyethyl)pyrrolidin-3-yl)urea], the IC50 was below 100 nM.

As to `CCOc1nn(-c2ccccc2)c(NC(=O)N[C@H]2CN(c3ccnn3C)C[C@@H]2c2cc(F)cc(F)c2)c1C` [Example 231, 1-((3R,4S)-4-(3,5-difluorophenyl)-1-(1-methyl-1H-pyrazol-5-yl)pyrrolidin-3-yl)-3-(3-ethoxy-4-methyl-1-phenyl-1H-pyrazol-5-yl)urea], the IC50 was below 100 nM. With `CCn1nc(-c2ccccc2)cc1NC(=O)N[C@@H]1CN(CCOC)C[C@H]1c1ccccc1` (relative stereo) [Example 25, 1-(1-ethyl-3-phenyl-1H-pyrazol-5-yl)-3-(trans-1-(2-methoxyethyl)-4-phenylpyrrolidin-3-yl)urea], the IC50 fell in the range of 100 to 1000 nM.

As for `COCCN1C[C@@H](NC(=O)Nc2c(C)c(-c3cnn(C)n3)nn2-c2ccccc2)[C@H](c2cccc(F)c2)C1` [Example 384, 1-((3S,4R)-4-(3-fluorophenyl)-1-(2-methoxyethyl)pyrrolidin-3-yl)-3-(4-methyl-3-(2-methyl-2H-1,2,3-triazol-4-yl)-1-phenyl-1H-pyrazol-5-yl)urea], the IC50 is below 100 nM.

Compound `COCC(N1C[C@@H](NC(=O)Nc2c3c(nn2-c2ccccc2)CCC3)[C@H](c2ccc(F)c(F)c2)C1)C(C)(C)O` (stereo partly drawn) [Example 261, 1-((3S,4R)-4-(3,4-difluorophenyl)-1-(3-hydroxy-1-methoxy-3-methylbutan-2-yl)pyrrolidin-3-yl)-3-(2-phenyl-2,4,5,6-tetrahydrocyclopenta[c]pyrazol-3-yl)urea] displayed an IC50 of 100 to 1000 nM.

Turning to `COCCN1C[C@@H](NC(=O)Nc2c(Br)c(-c3cnn(C)c3)nn2-c2ccccc2)[C@H](c2cc(F)cc(F)c2)C1` [Example 419, 1-(4-bromo-1′-methyl-1-phenyl-1H,1′H-[3,4′-bipyrazol]-5-yl)-3-((3S,4R)-4-(3,5-difluorophenyl)-1-(2-methoxyethyl)pyrrolidin-3-yl)urea], the IC50 was below 100 nM. Compound `COCCN1C[C@@H](NC(=O)Nc2c(C)c(OCC#N)nn2-c2ccccc2)[C@H](c2ccc(F)c(F)c2)C1` [Example 141, 1-(3-(cyanomethoxy)-4-methyl-1-phenyl-1H-pyrazol-5-yl)-3-((3S,4R)-4-(3,4-difluorophenyl)-1-(2-methoxyethyl)pyrrolidin-3-yl)urea] registered an IC50 below 100 nM. The compound `COCCN1C[C@@H](NC(=O)Nc2c(Cl)c(-c3cnn(C)c3)nn2-c2ccccc2)[C@H](c2cc(F)cc(F)c2)C1` [Example 422, 1-(4-chloro-1′-methyl-1-phenyl-1H,1′H-[3,4′-bipyrazol]-5-yl)-3-((3S,4R)-4-(3,5-difluorophenyl)-1-(2-methoxyethyl)pyrrolidin-3-yl)urea] registered an IC50 below 100 nM.

`COCCN1C[C@@H](NC(=O)Nc2c(C)c(C)nn2-c2ccccc2)[C@H](c2ccc(F)cc2)C1` [Example 129, 1-(3,4-dimethyl-1-phenyl-1H-pyrazol-5-yl)-3-((3S,4R)-4-(4-fluorophenyl)-1-(2-methoxyethyl)pyrrolidin-3-yl)urea] came in with an IC50 below 100 nM. Regarding `COCCN1C[C@@H](NC(=O)Nc2c(Cl)c(C(F)(F)CO)nn2-c2ccccc2)[C@H](c2ccc(F)c(F)c2)C1` [Example 409, 1-(4-chloro-3-(1,1-difluoro-2-hydroxyethyl)-1-phenyl-1H-pyrazol-5-yl)-3-((3S,4R)-4-(3,4-difluorophenyl)-1-(2-methoxyethyl)pyrrolidin-3-yl)urea], the IC50 was below 100 nM. As for `CCOc1nn(-c2ccccc2)c(NC(=O)N[C@@H]2CN(c3c[nH]nc3C(F)(F)F)C[C@H]2c2ccc(F)c(F)c2)c1C` [Example 220, 1-((3S,4R)-4-(3,4-difluorophenyl)-1-(3-(trifluoromethyl)-1H-pyrazol-4-yl)pyrrolidin-3-yl)-3-(3-ethoxy-4-methyl-1-phenyl-1H-pyrazol-5-yl)urea], the IC50 is 100 to 1000 nM.

For `COCCN1C[C@@H](NC(=O)Nc2c(C)c([C@H]3CCCN3S(C)(=O)=O)nn2-c2ccccc2)[C@H](c2ccc(F)c(F)c2)C1` [Example 595, 1-((3S,4R)-4-(3,4-difluorophenyl)-1-(2-methoxyethyl)pyrrolidin-3-yl)-3-(4-methyl-3-((R)-1-(methylsulfonyl)pyrrolidin-2-yl)-1-phenyl-1H-pyrazol-5-yl)urea], the IC50 was below 100 nM.

Take `COCCN1C[C@@H](NC(=O)Nc2c(C)c(-c3cnc(C)nc3)nn2-c2ccccc2)[C@H](c2ccc(F)c(F)c2)C1` [Example 511, 1-((3S,4R)-4-(3,4-difluorophenyl)-1-(2-methoxyethyl)pyrrolidin-3-yl)-3-(4-methyl-3-(2-methylpyrimidin-5-yl)-1-phenyl-1H-pyrazol-5-yl)urea]: the IC50 is below 100 nM. Compound `COCCN1C[C@@H](NC(=O)Nc2c(C)c(-c3nc(C(F)(F)F)no3)nn2-c2ccccc2)[C@H](c2ccc(F)c(F)c2)C1` [Example 299, 1-((3S,4R)-4-(3,4-difluorophenyl)-1-(2-methoxyethyl)pyrrolidin-3-yl)-3-(4-methyl-1-phenyl-3-(3-(trifluoromethyl)-1,2,4-oxadiazol-5-yl)-1H-pyrazol-5-yl)urea] yielded an IC50 below 100 nM.

`COCCN1C[C@@H](NC(=O)Nc2c(C)c(OC(=O)N(C)C)nn2-c2ccccc2)[C@H](c2ccc(F)c(F)c2)C1` [Example 396, 5-(3-((3S,4R)-4-(3,4-difluorophenyl)-1-(2-methoxyethyl)pyrrolidin-3-yl)ureido)-4-methyl-1-phenyl-1H-pyrazol-3-yl dimethylcarbamate] yielded an IC50 below 100 nM.

`COCCN1C[C@@H](NC(=O)Nc2c(C)c(OC[C@@H](C)O)nn2-c2ccccc2)[C@H](c2cc(F)cc(F)c2)C1` [Example 366, 1-((3S,4R)-4-(3,5-difluorophenyl)-1-(2-methoxyethyl)pyrrolidin-3-yl)-3-(3-((R)-2-hydroxypropoxy)-4-methyl-1-phenyl-1H-pyrazol-5-yl)urea] gave an IC50 below 100 nM. Regarding `COCCN1C[C@@H](NC(=O)Nc2c(C)c(C(N)=O)nn2-c2ccccc2)[C@H](c2ccc(F)c(F)c2)C1` [Example 463, 5-(3-((3S,4R)-4-(3,4-difluorophenyl)-1-(2-methoxyethyl)pyrrolidin-3-yl)ureido)-4-methyl-1-phenyl-1H-pyrazole-3-carboxamide], the IC50 is below 100 nM. `COCCN1CC(c2ccccc2)[C@H](NC(=O)Nc2cnn3ccccc23)C1` (stereo partly drawn) [Example 636] gave an IC50 of 100 to 1000 nM. Under `COCCN1C[C@@H](NC(=O)Nc2c(C)c(COC)nn2-c2ccccc2)[C@H](c2ccccc2)C1` [Example 101, 1-((3S,4R)-1-(2-methoxy-ethyl)-4-phenylpyrrolidin-3-yl)-3-(3-(methoxy-methyl)-4-methyl-1-phenyl-1H-pyrazol-5-yl) urea] stands below 100 nM; under `COCCN1C[C@@H](NC(=O)Nc2c(C)c(-c3ccn(C)n3)nn2-c2ccccc2)[C@H](c2cc(F)cc(F)c2)C1` [Example 493, 1-((3S,4R)-4-(3,5-difluorophenyvl)-1-(2-methoxyethyl)pyrrolidin-3-yl)-3-(1′,4-dimethyl-1-phenyl-1H,1′H-[3,3′-bipyrazol]-5-yl)urea], below 100 nM; under `O=C(Nc1c2c(nn1-c1ccccc1)CCC2)N[C@@H]1CN(CCOC(F)(F)F)C[C@H]1c1ccccc1` (relative stereo) [Example 182, 1-(trans-4-phenyl-1-(2-(trifluoromethoxy)ethyl)pyrrolidin-3-yl)-3-(2-phenyl-2,4,5,6-tetrahydrocyclopenta[c]pyrazol-3-yl)urea], below 100 nM. In turn, `COCCN1C[C@@H](NC(=O)Nc2cc(C(C)C)nn2-c2ccccc2)[C@H](c2cccc(F)c2)C1` (relative stereo) [Example 40, trans-1-(-4-(3-fluorophenyl)-1-(2-methoxyethyl)pyrrolidin-3-yl)-3-(3-isopropyl-1-phenyl-1H-pyrazol-5-yl)urea] came in with an IC50 below 100 nM.

Take `COCCN1C[C@@H](NC(=O)Nc2c(C)c(=O)[nH]n2-c2ccccc2)[C@H](c2cc(F)cc(Cl)c2)C1` (relative stereo) [Example 614, 1-((trans)-4-(3-chloro-5-fluorophenyl)-1-(2-methoxyethyl)pyrrolidin-3-yl)-3-(4-methyl-5-oxo-2-phenyl-2,5-dihydro-1H-pyrazol-3-yl)urea]: the IC50 was below 100 nM. Compound `COCCN1C[C@@H](NC(=O)Nc2c(C)c(-c3ccc(N)nc3)nn2-c2ccccc2)[C@H](c2ccc(F)c(F)c2)C1` [Example 515, 1-(3-(6-aminopyridin-3-yl)-4-methyl-1-phenyl-1H-pyrazol-5-yl)-3-((3S,4R)-4-(3,4-difluorophenyl)-1-(2-methoxyethyl)pyrrolidin-3-yl)urea] yielded an IC50 below 100 nM. As for `COCCN1C[C@@H](NC(=O)Nc2c(Cl)c(OCC(F)(F)F)nn2-c2ccccc2)[C@H](c2ccc(F)c(F)c2)C1` [Example 479, 1-(4-chloro-1-phenyl-3-(2,2,2-trifluoroethoxy)-1H-pyrazol-5-yl)-3-((3 S,4R)-4-(3,4-difluorophenyl)-1-(2-methoxyethyl)pyrrolidin-3-yl)urea], the IC50 was below 100 nM. `COCCN1C[C@@H](NC(=S)Nc2c(C)c(-c3cnn(C)c3)nn2-c2ccccc2)[C@H](c2ccc(F)cc2)C1` [Example 633, 1-((3S,4R)-4-(4-fluorophenyl)-1-(2-methoxyethyl)pyrrolidin-3-yl)-3-(1′,4-dimethyl-1-phenyl-1H, 1′H-3,4′-bipyrazol-5-yl)thiourea] showed an IC50 below 100 nM. As to `COCCN1C[C@@H](NC(=O)Nc2cc(C)nn2-c2ccccc2)[C@H](c2ccccc2)C1` (relative stereo) [Example 11, 1-(trans-1-(2-methoxyethyl)-4-phenylpyrrolidin-3-yl)-3-(3-methyl-1-phenyl-1H-pyrazol-5-yl)urea], the IC50 was below 100 nM.

Source of the values: US10323022B2, “Pyrrolidinyl urea, pyrrolidinyl thiourea and pyrrolidinyl guanidine compounds as TrkA kinase inhibitors” (Array BioPharma Inc., priority 2011, dated 2019).
